Measurements from patent publication US9018176B2, “Inducers of hematopoiesis and fetal globin production for treatment of cytopenias and hemoglobin disorders” (priority 2010, dated 2015).

Key:
[1] = test system: γ-globin gene promoter; test: Dual luciferase reporter assay (μLCRβprRlucAγprFluc cassette) in GM979 cells; format: cell-based; details: Resveratrol at 10 μM, MS-275 at 5 μM
From the text: Cell-based screen for γ-globin inducing compounds in GM979 cells (Skarpidi, et al. Blood 2000; 96:321-326). Mini-gene construct integrated into GM979 cell genome. The readout is Firefly/Renilla luciferase ratio, and is designed to identify only strong inducers of the γ-globin promoter, and specificity for the γ- vs. the […]γ-globin gene. This second assay confirmed 12/15 candidates.
This assay is […], and consists of a dual-luciferase reporter construct containing the LCR and the […] luciferase and the Aγ-globin promoter linked to firefly luciferase (μLCRβprRlucAγprFluc cassette), stably-transfected into GM979 cells. The orientation of the promoters and μLCR allowed detection only of strong, specific inducers of the γ-globin gene promoter. This assay is also been predictive of in vivo HbF-inducing activity.
The γ-globin-specificity of hits was determined in a secondary assay employing a stably-transfected dual-luciferase reporter construct containing the LCR and the β-globin promoter linked to renilla luciferase and the Aγ-globin promoter linked to firefly luciferase (μLCRβprRlucAγprFluc cassette) (FIG. 2B).

[2] = test system: γ-globin mRNA; test: γ-globin mRNA in cultured primary human erythroid progenitors (BFU-e), real-time PCR; format: cell-based
Method: Erythroid progenitors were cultured from cord blood CD34+ cells. […] Each compound was tested in three different cultures. […] On day 14, RNA was extracted from cultured erythroid cells, and relative quantification PCR was performed. Briefly, cDNA was generated from equal amounts of total RNA extracted using The PerfectPure RNA Purification Kit (5 Prime Inc Gaithersburg, Md.). Real-time PCR was performed using an ABI 7500 Real-Time PCR system (Applied Biosystems, Foster City, Calif.). Levels of globin mRNA were calculated by the ΔΔCt method. […] GAPDH levels were used for standardization. Western blotting Nuclear extract of K562 cells and 14-day-old BFU-e were analyzed by electrophoresis using 5-24% gradient SDS-polyacrylamide mini-gels (BIORAD Laboratories. Hercules Calif.). Proteins in the gels were transferred to Immobilon-P membranes. Blots were then incubated with BCL11A polyclonal (Novus Biologicals, Littleton Co) or mouse monoclonal (Santa Cruz Biotechnology, Santa Cruz Calif.) antibodies, after washing blots were incubated with anti-rabbit IgG-horseradish peroxidase secondary antibody (ECL, Little Chalfont Buckinghamshire UK). BCL11A bands were detected on the X-ray film using Western Lightning Reagents (Perking Elmer Inc, Waltham, Mass.).

[3] = test system: γ-globin mRNA; test: γ-globin mRNA gene expression in K562 cells; format: cell-based
[4] = test system: CB BFU-E cells; test: CB BFU-E cell proliferation (cells/colony); details: FIG. 8
Method: Fetal globin-inducing activity in human erythroid progenitors was assessed. Human erythroid progenitors were cultured from peripheral blood samples, exposed to the test compounds at varying concentrations and for varying durations and analyzed for globin chain mRNA ratios. Erythroid progenitors were cultured from cord blood CD34+ cells. Briefly, CD34+ cells in the human cord blood were separated using a Ficoll-paque density gradient. CD34+ cells were cultured in H4230 medium containing 2 mM L-glutamine, 1% Methylcellulose in Iscove's Medium, 30% Fetal Bovine Serum, 1% Bovine Serum Albumin and 10^-4 M β-mercaptoethanol. Methylcellulose H4230 medium was supplemented with EPO (0.5 U/ml) and IL-3 (20 ng/ml) to support BFU-e growth. Cells were cultured in […] mini-dishes and incubated in a humidified atmosphere containing 5% CO2, at 37° C. Different concentrations of the test compounds were added at the time the cultures were established. Each compound was tested in three different cultures. BFU-e colonies grown in mini-dishes were counted on day 14 and harvested for mRNA analysis.

[5] = test system: histone deacetylases; test: Histone deacetylase inhibition
[6] = test system: γ-globin mRNA; test: γ-globin mRNA in cultured primary human erythroid progenitors (BFU-e), real-time PCR; format: cell-based; details: Resveratrol 0.2 uM
[7] = Hemoglobin disorder progenitors

concentration that inhibits histone deacetylases [5]: 0.05 µM
Compound: Oc1ccc(C=Cc2cc(O)cc(O)c2)cc1 [Resveratrol, resveratrol]
activity compared with sodium Butyrate ([1]; Ambroxol at 1 μM, Desloratadine at 1 μM, Benserazide at 0.03 μM (or a range of 30 nM-5 μM), NSC-95397 at 1 μM, versus sodium Butyrate at 2000 μM): significantly more active
most active at inducing γ-globin mRNA expression ([1]; Benserazide at 0.03 μM): most active
% induction of γ-globin mRNA gene expression ([2]; FIG. 4C, HFU-E (burst-forming units-erythroid) cells, Resveratrol 30 μM, desloratadine 50 μM, NSC 50 μM, Benserazine 5 μM): most significant % increase
γ-globin mRNA induction ([2]; cultured primary human erythroid progenitors, concentrations pharmacologically achievable in humans): up to 3 fold
concentrations that induce fetal globin (HbF) mRNA ([2]; primary erythroid progenitors in vitro): 0.05 µM
concentration giving the most γ-globin mRNA expression ([3]; FIG. 5, K562 cells, tested Desloratadine 10 μM-100 μM, Resveratrol 5 μM-30 μM, NSC 1 μM-50 μM): 30 µM
% induction of γ-globin mRNA gene expression ([3]; FIGS. 4A and 4B, K562 cells, Resveratrol 30 μM, desloratadine 50 μM, NSC 50 μM, Benserazine 5 μM): most significant % increase
number of blood cells per colony [4]: increase the number of blood cells per colony
cytotoxicity / inhibition of erythroid cell proliferation ([4]; Desloratadine 1 μM-10 μM, Resveratrol 0.05 μM-5 μM, Benserazide 0.1 μM-10 μM): non-cytotoxic
fetal globin mRNA, Mean ([6]; Cord Blood progenitors): 217 % of control
responses (cultures with induced fetal globin mRNA) ([6]; Cord Blood progenitors): 5/5
fetal globin mRNA, Mean [6, 7]: 245 % of control
responses (cultures with induced fetal globin mRNA) [6, 7]: 1/2
fetal globin mRNA, Mean ([6]; Normal progenitors): 122 % of control
responses (cultures with induced fetal globin mRNA) ([6]; Normal progenitors): 1/2
